Experimental data: patent US11129386B2, “Microbiocidal quinoline (thio)carboxamide derivatives” (SYNGENTA PARTICIPATIONS AG, priority 2017, dated 2021)

Key:
[1] = test system: Botryotinia fuckeliana (Botrytis cinerea); experiment: Botryotinia fuckeliana (Botrytis cinerea)/liquid culture (Gray mould); format: cell-based; conditions: liquid culture, growth inhibition photometrically 3-4 days after application, compared to untreated control
[2] = test system: Glomerella lagenarium (Colletotrichum lagenarium); experiment: Glomerella lagenarium (Colletotrichum lagenarium)/liquid culture (Anthracnose); format: cell-based; conditions: Colletotrichum orbiculare, 72 h, liquid culture, growth inhibition photometrically 3-4 days after application, compared to untreated control
Fusarium culmorum = experiment: microbe, parasite or virus in culture; format: cell-based; conditions: read-out: control of Fusarium culmorum
[3] = test system: Magnaporthe grisea (Pyricularia oryzae); experiment: microbe, parasite or virus in culture; format: cell-based; conditions: read-out: control of Magnaporthe grisea

CC1(CC(C)(CC(F)(F)F)C(=O)Nc2cnc3c(F)cccc3c2)CC1 (centres unmarked) [Compound E1, 4,4,4-trifluoro-N-(8-fluoro-3-quinolyl)-2-methyl-2-[(1-methylcyclopropyl)methyl]butanamide]
inhibition of growth at 20 ppm [1]: ≥ 80% | inhibition of growth at 20 ppm [2]: ≥ 80% | inhibition of growth at 20 ppm (Fusarium culmorum): ≥ 80% | inhibition of growth at 20 ppm [3]: ≥ 80% | melting point: 60 to 70 °C

C/C=C(\C)CC(C)(CC(C)C)C(=O)Nc1cnc2c(F)cccc2c1 (centres unmarked) [Compound E2]
inhibition of growth at 20 ppm [1]: ≥ 80% | inhibition of growth at 20 ppm [2]: ≥ 80% | inhibition of growth at 20 ppm (Fusarium culmorum): ≥ 80% | inhibition of growth at 20 ppm [3]: ≥ 80% | melting point: 135 to 137 °C

CC(C)=C(C)CC(C)(CC(C)C)C(=O)Nc1cnc2c(F)cccc2c1 (centres unmarked) [Compound E3]
inhibition of growth at 20 ppm [1]: ≥ 80% | inhibition of growth at 20 ppm [2]: ≥ 80% | inhibition of growth at 20 ppm (Fusarium culmorum): ≥ 80% | inhibition of growth at 20 ppm [3]: ≥ 80%

CC(C)=C(F)CC(C)(CC(C)C)C(=O)Nc1cnc2ccccc2c1 (centres unmarked) [Compound E4]
inhibition of growth at 20 ppm [1]: ≥ 80% | inhibition of growth at 20 ppm [2]: ≥ 80% | inhibition of growth at 20 ppm (Fusarium culmorum): ≥ 80% | inhibition of growth at 20 ppm [3]: ≥ 80%

CC(C)CC(C)(CC1CC1)C(=O)Nc1cnc2c(F)cccc2c1 (centres unmarked) [Compound E5]
inhibition of growth at 20 ppm [1]: ≥ 80% | inhibition of growth at 20 ppm [2]: ≥ 80% | inhibition of growth at 20 ppm (Fusarium culmorum): ≥ 80% | inhibition of growth at 20 ppm [3]: ≥ 80%

CC(C)CC(C#N)(CC(C)C)C(=O)Nc1cnc2c(F)cccc2c1 [Compound E6]
inhibition of growth at 20 ppm [1]: ≥ 80% | inhibition of growth at 20 ppm [2]: ≥ 80% | inhibition of growth at 20 ppm (Fusarium culmorum): ≥ 80% | inhibition of growth at 20 ppm [3]: ≥ 80%

C=CCC(C)(CC(C)C)C(=O)Nc1cnc2c(F)cccc2c1 (centres unmarked) [Compound E7]
inhibition of growth at 20 ppm [1]: ≥ 80% | inhibition of growth at 20 ppm [2]: ≥ 80% | inhibition of growth at 20 ppm (Fusarium culmorum): ≥ 80% | inhibition of growth at 20 ppm [3]: ≥ 80%

C=C(C)CC(C)C(=O)Nc1cnc2c(F)cccc2c1 (centres unmarked) [Compound E9]
inhibition of growth at 20 ppm [1]: ≥ 80% | inhibition of growth at 20 ppm [2]: ≥ 80% | inhibition of growth at 20 ppm (Fusarium culmorum): ≥ 80%

CC(C)=C(F)CC(CC(C)C)C(=O)Nc1cnc2c(F)cccc2c1 (centres unmarked) [Compound E10]
inhibition of growth at 20 ppm [1]: ≥ 80% | inhibition of growth at 20 ppm [2]: ≥ 80% | inhibition of growth at 20 ppm (Fusarium culmorum): ≥ 80% | inhibition of growth at 20 ppm [3]: ≥ 80% | melting point: 103 to 105 °C

CC(CC1CCCCC1)C(=O)Nc1cnc2c(F)cccc2c1 (centres unmarked) [Compound E11]
inhibition of growth at 20 ppm [1]: ≥ 80% | inhibition of growth at 20 ppm [2]: ≥ 80% | inhibition of growth at 20 ppm (Fusarium culmorum): ≥ 80% | inhibition of growth at 20 ppm [3]: ≥ 80% | melting point: 179 to 181 °C

C=C(Cl)CC(C)(CC1CCCCC1)C(=O)Nc1cnc2c(F)cccc2c1 (centres unmarked) [Compound E12]
inhibition of growth at 20 ppm [1]: ≥ 80% | inhibition of growth at 20 ppm [2]: ≥ 80% | inhibition of growth at 20 ppm (Fusarium culmorum): ≥ 80% | inhibition of growth at 20 ppm [3]: ≥ 80%

Cc1c(NC(=O)C(C)CC(C)C)cnc2c(F)cccc12 (centres unmarked) [Compound E13]
inhibition of growth at 20 ppm [1]: ≥ 80% | inhibition of growth at 20 ppm [2]: ≥ 80% | inhibition of growth at 20 ppm (Fusarium culmorum): ≥ 80%

CC(CC(F)(F)F)C(=O)Nc1cnc2c(F)cccc2c1 (centres unmarked) [Compound E14]
inhibition of growth at 20 ppm [1]: ≥ 80% | inhibition of growth at 20 ppm [2]: ≥ 80% | inhibition of growth at 20 ppm (Fusarium culmorum): ≥ 80%
